This is an account of results in article PMC6994497, “Structural basis for Glycan-receptor binding by mumps virus hemagglutinin-neuraminidase” (Scientific Reports, 2020).

The test addresses T1, MuV-HN (Mumps orthorubulavirus, UniProt Q9WAF5).
T1 construct: pHLsec N-terminal secretion signal, C-terminal His6 tag; secreted from HEK293S GnTI(-) cells; Ni-NTA and size exclusion
As to the kind of experiment: STD NMR. Format: binding. The note with it: deuterated phosphate buffer pH 7.4; reaction mixture after hydrolysis of 1, also free reducing sialic acid.

T1 sequence (Q9WAF5 96-582): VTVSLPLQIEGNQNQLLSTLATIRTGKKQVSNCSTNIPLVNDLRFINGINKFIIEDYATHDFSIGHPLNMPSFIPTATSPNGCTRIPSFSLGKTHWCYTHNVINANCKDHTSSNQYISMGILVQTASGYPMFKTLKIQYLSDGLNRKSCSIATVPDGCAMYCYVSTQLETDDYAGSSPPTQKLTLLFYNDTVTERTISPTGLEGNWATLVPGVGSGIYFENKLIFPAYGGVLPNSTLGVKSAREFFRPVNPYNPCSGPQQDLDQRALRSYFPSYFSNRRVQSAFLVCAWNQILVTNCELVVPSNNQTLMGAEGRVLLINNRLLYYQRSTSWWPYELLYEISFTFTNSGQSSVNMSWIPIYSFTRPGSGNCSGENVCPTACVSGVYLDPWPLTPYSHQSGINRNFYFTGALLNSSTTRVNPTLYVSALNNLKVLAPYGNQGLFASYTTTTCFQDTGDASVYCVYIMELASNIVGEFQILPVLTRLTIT

For the compound `CC(=O)N[C@H]1[C@H]([C@H](O)[C@H](O)CO)OC(O)(C(=O)O)C[C@@H]1O` (stereo partly shown) [reducing Sia], the “STD NMR” value is recorded as “the protein was able to bind the reducing sialic acid produced during the hydrolysis reaction”.
